Reference: article PMC12354831 (Cell Death Discovery, 2025)

Columns and labels:
[1] = CC50 determination (CCK-8) in normal astrocyte cell line SVGp12; format: cell-based; conditions: human, SVGp12 normal astrocyte cells, SVGp12 normal astrocytes
Method: The human normal astrocyte cell line SVGp12 was seeded in a 96-well plate at a density of 5 × 10^3 cells per well and incubated overnight at 37 °C in a humidified atmosphere containing 5% CO2. […] After the treatment period, 10 μL of CCK-8 reagent was added to each well, followed by an additional incubation for 1 h under the same conditions. The absorbance at 450 nm was measured using a microplate reader. In this study, the experimental group treated with TMZ or CAPE was designated as group A, the control group treated with DMSO as group B, and the blank control group without cells as group C. The cell viability rate was calculated using the formula: (A-C)/(B-C) × 100%, where A, B, and C represent the absorbance values of group A, group B, and group C, respectively.

[2] = target: T1, GLUT3 (Homo sapiens, UniProt P11169); assay: Cellular uptake of TMZ and CAPE by LC-MS/MS, GLUT3 KD U343-MG cells; format: in vitro ADME; conditions: for extracellular drug level higher than controls: GLUT3-KD U343-MG cells, remaining extracellular drug after uptake; for reduction of drug uptake by GLUT3 KD: U343-MG cells, 200 μM drug, 37 °C, 15 min, intracellular level vs control
T1 construct: expressed in transfected cells
T1 sequence (P11169 1-496): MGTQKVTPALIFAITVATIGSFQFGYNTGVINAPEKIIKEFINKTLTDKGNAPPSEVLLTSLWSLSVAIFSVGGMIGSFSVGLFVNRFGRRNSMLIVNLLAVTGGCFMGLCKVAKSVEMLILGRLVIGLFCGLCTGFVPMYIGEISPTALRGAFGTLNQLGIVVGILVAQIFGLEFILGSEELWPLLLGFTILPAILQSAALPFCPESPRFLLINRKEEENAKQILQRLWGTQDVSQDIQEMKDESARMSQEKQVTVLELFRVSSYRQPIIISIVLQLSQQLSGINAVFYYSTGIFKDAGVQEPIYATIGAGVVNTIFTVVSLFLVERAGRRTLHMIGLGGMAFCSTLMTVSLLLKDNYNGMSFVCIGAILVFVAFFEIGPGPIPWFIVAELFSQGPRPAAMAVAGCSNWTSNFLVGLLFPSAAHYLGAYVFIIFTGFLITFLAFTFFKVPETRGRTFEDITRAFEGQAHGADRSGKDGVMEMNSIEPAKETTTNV
Method: A total of 6 × 10^6 cells were seeded into each well of a 6 cm Petri dish and cultured at 37 °C in a humidified atmosphere containing 5% CO2 for 8 h. The cells were then washed twice with PBS (137 mM NaCl, 2.7 mM KCl, 10 mM Na2HPO4, 1.8 mM KH2PO4, pH 7.4) and incubated in transport buffer (140 mM NaCl, 5 mM KCl, 2 mM MgCl2, 2 mM CaCl2, 30 mM Tris-HCl, pH 7.4) for 15 min at 37 °C. […] Cell supernatants were collected and stored at 4 °C for subsequent extraction. The harvested cells were washed three times with PBS and extracted with 500 µL of 80% methanol for 30 min at −80 °C. The cell lysate was then centrifuged at 14,000 × g for 5 min at 4 °C, followed by 2 min of sonication. The supernatant was transferred to a new centrifuge tube. For LC-MS/MS analysis, the cell supernatants and cell lysates were diluted at a specific ratio. A total of 100 µL of each sample was mixed with 100 µL of acetonitrile (or standard reagent) and 300 µL of internal standard solution (^2H3-TMZ 100 ng/mL and ^2H11-CAPE 20 ng/mL dissolved in acetonitrile). […] Quality control (QC) samples were prepared and analyzed alongside the experimental samples to monitor the stability and repeatability of the instrument. QC samples were inserted regularly and analyzed every 6–12 samples. Each experiment was repeated 5–6 times.
LC-MS/MS analyses were performed using a high-performance liquid chromatography (HPLC) system (Shimadzu, LC-20A) coupled to a […] (ABSciex, API4000 QTRAP). The samples were separated on a 2.1 × 100 mm ACQUITY Premier BEH C18 1.7 µm VanGuard™ FIT column (Waters, Ireland). The mobile phases consisted of: Mobile phase A (0.1% formic acid and 2.5 mM ammonium acetate in water) and Mobile phase B (0.1% formic acid and 2.5 mM ammonium acetate in acetonitrile). Gradient elution was employed, with the flow rates and gradient conditions detailed in Table S2.
The mass spectrometry conditions were as follows: Ion source: electrospray ionization (ESI); Detection mode: positive ion mode; Scanning method: multiple reaction monitoring (MRM); Spray voltage (IS): 5500 V; Ion source temperature (TEM): 555 °C; Gas curtain pressure (CUR): 25 psi; Collision activation dissociation (CAD): MEDIUM; Nebulizer gas pressure (GS1): 55 psi; Auxiliary gas pressure (GS2): 55 psi.

[3] = tested on: U251-MG cells; assay: CCK-8 IC50 in U251-MG cells expressing GLUT3 mutants vs WT; format: cell-based, human; conditions: GLUT3 Q159A vs GLUT3 WT
Method: The GBM cell line was seeded into a 96-well plate at a density of 5 × 10^3 cells per well and incubated at 37 °C in a humidified atmosphere containing 5% CO2 overnight. […] Following 24 h of drug treatment, 10 µL of CCK-8 reagent was added to each well, and the cells were incubated for an additional 1 h at 37 °C. The absorbance was then measured at 450 nm using a microplate reader.
In this study, the experimental groups were designated as Group A (cells treated with temozolomide (TMZ) or capecitabine (CAPE)), the control group as Group B (cells treated with DMSO), and the blank control group as Group C ([…]). The cell viability rate was calculated using the formula: (A-C)/(B-C) × 100%, where A, B, and C represent the absorbance values of Group A, Group B, and Group C, respectively.

SMILES	CC50 at 24 h [1] [µM]	extracellular drug level higher than controls [2] [%]	reduction of drug uptake by GLUT3 KD [2] [%]	fold increase in IC50 [3] [fold]
CCCCCOC(=O)Nc1nc(=O)n([C@@H]2O[C@H](C)[C@@H](O)[C@H]2O)cc1F [CAPE, capecitabine]	163 ± 31.8	12	65.5	3.6
Cn1nnc2c(C(N)=O)ncn2c1=O [TMZ]	104 ± 21.1	3	54.3	1.3
